{
  "source": "ChEMBL document CHEMBL1201862",
  "about": "“PubChem BioAssay data set” (2004)",
  "key": {"[1]": {"target": "T1, Dual specificity protein phosphatase 6 (Rattus norvegicus, UniProt Q64346)", "T1 sequence (Q64346 whole entry)": "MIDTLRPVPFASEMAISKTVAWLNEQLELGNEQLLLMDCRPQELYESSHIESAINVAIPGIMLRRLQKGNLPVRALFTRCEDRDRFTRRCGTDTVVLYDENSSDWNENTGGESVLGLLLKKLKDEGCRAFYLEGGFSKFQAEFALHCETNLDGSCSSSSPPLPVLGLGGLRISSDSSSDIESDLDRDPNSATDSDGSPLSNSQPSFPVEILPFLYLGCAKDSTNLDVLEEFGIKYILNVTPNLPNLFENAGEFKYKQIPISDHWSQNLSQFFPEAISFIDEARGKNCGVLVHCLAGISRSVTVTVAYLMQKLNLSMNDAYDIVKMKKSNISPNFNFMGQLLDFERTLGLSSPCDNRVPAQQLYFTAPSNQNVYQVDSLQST", "assay": "inhibition of rat DUSP6 enzyme activity – biochemical, in vitro, primary screen (AID 425)"}, "Caspase-3": {"target": "T2, Caspase-3 (Homo sapiens, UniProt P42574)", "T2 sequence (P42574 whole entry)": "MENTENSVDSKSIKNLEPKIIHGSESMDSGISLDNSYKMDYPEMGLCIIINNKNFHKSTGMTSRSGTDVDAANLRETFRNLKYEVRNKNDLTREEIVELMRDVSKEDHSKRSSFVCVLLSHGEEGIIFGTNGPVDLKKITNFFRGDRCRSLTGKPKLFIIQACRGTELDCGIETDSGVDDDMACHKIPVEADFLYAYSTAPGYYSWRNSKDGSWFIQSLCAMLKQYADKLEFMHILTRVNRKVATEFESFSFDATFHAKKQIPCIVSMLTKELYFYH", "format": "functional"}, "[2]": {"target": "T3, Sentrin-specific protease 8 (Homo sapiens, UniProt Q96LD8)", "T3 sequence (Q96LD8 whole entry)": "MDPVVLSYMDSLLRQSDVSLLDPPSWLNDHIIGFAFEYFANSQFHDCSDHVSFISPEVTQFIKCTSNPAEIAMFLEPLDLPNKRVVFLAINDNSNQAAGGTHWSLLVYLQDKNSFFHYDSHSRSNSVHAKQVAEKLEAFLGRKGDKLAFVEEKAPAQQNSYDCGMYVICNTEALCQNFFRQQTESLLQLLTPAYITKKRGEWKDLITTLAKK", "format": "functional"}, "[3]": {"target": "Tyrosyl-DNA phosphodiesterase 2 (Homo sapiens, UniProt O95551)", "sequence (O95551 whole entry)": "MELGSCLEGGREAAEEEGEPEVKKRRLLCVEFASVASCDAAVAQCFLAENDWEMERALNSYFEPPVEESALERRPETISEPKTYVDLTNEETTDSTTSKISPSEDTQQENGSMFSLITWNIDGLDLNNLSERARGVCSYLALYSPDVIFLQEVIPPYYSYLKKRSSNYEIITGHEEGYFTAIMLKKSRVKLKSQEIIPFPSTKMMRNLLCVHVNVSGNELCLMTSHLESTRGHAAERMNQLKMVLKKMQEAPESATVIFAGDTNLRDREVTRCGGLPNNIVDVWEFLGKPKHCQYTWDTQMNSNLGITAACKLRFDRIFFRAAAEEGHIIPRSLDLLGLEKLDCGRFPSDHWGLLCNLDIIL", "assay": "potency against TDP2 phosphodiesterase activity – biochemical, epi absorbance, IC50, dose response (AID 743297)"}, "[4]": {"assay": "Trypanosoma cruzi growth suppression in host cells – NIH3T3 host cells, beta-gal luminescence, confirmation (AID 2044);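 further: intracellular parasites grown in NIH/3T3 mouse fibroblasts as host cells; luminescent beta-galactosidase reporter signal from transgenic T. cruzi replicating inside host cells; inhibitors lower the luminescence signal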", "format": "functional, cell-based"}, "[5]": {"assay": "luciferase reporter signal suppression in cells – H4 neuroglioma cells, luminescence, dose response (AID 1990)", "format": "functional, cell-based"}, "[6]": {"assay": "Luminescence Cell-Based Dose Response HTS to Identify Inhibitors of 5'UTR Stem-Loop Driven Prion Protein mRNA Translation in H4 Neuroglioblastoma Cells. [Related pubchem assays: 1827 (Project Summary), 1813 (Primary HTS)]", "format": "functional"}, "[7]": {"target": "T4, Type-1 angiotensin II receptor (Homo sapiens, UniProt P30556)", "T4 sequence (P30556 whole entry)": "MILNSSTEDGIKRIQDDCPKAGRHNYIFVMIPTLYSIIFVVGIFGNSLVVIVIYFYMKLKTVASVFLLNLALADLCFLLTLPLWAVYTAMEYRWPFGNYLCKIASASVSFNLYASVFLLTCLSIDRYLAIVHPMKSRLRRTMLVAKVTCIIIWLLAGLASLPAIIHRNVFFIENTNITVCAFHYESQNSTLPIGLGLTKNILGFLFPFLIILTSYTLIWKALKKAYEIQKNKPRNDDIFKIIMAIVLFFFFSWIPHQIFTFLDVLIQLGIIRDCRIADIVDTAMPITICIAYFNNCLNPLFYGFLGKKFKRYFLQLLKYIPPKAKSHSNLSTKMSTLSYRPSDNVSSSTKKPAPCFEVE", "assay": "antagonism of angiotensin II type 1 receptor – cell-based, uHTS hits, selectivity assay for APJ receptor antagonist project, dose response (AID 463214)", "format": "functional"}, "[8]": {"assay": "cytotoxicity toward MDA-MB-231 breast cancer cells – cell-based, CellTiter-Glo luminescence, cherry-pick, cytotoxicity control for RAD54 inhibitor project, dose response (AID 651692)", "format": "functional"}, "[9]": {"target": "T5, Mannose-6-phosphate isomerase (Homo sapiens, UniProt P34949)", "T5 sequence (P34949 whole entry)": "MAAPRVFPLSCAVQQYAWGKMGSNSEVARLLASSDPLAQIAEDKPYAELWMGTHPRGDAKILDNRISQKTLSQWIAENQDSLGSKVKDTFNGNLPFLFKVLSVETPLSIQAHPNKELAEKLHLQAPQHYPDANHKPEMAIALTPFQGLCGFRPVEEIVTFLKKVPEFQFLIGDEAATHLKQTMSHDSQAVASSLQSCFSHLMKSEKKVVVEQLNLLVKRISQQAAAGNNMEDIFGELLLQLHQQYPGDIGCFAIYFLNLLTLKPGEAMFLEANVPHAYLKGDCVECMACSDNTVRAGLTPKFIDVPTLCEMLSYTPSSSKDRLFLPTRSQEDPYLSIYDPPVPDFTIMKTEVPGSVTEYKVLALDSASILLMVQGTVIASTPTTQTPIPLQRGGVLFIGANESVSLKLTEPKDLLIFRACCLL", "assay": "MPI inhibition at elevated mannose 6-phosphate – biochemical, fluorescence intensity, high mannose 6-phosphate, primary screen (AID 1220)"}},
  "note": "Active and inactive are the calls of the source.",
  "data": [
    {"smiles": "N#Cc1c(NC(=O)c2ccc(Br)o2)n(-c2ccccc2)c2nc3ccccc3nc12", "values": [
      {"measurement": "IC50", "setting": "[1]", "result": "96.9 µM (active)"},
      {"measurement": "IC50", "setting": "Caspase-3", "result": "29.6 µM (active)"},
      {"measurement": "IC50", "setting": "[2]", "result": "4.55 µM (active)"},
      {"measurement": "IC50", "setting": "[3]", "result": "29.1 µM (inactive)"}
    ]},
    {"smiles": "CCCCCCCCCCOC(=O)Cn1c(COc2ccccc2)[n+](C)c2ccccc21", "values": [
      {"measurement": "EC50", "setting": "[4]", "result": "1.6 µM (active)"}
    ]},
    {"smiles": "CCOC(=O)c1c(-c2ccc(-c3ccccc3)cc2)csc1NC(=O)CNCCN(C)C", "values": [
      {"measurement": "EC50", "setting": "[5]", "result": "> 120 µM (not active)"},
      {"measurement": "EC50", "setting": "[6]", "result": "13.7 µM (active)"},
      {"measurement": "IC50", "setting": "[7]", "result": "9.33 µM (active)"},
      {"measurement": "AC50", "setting": "[8]", "result": "18.4 µM (active)"}
    ]},
    {"smiles": "COc1cc(-c2nnc(SCc3cc(=O)oc4cc(O)c(O)cc34)o2)cc(OC)c1OC", "values": [
      {"measurement": "IC50", "setting": "[9]", "result": "> 50 µM (not active)"}
    ]}
  ]
}
